Measured values published in patent US6426222B1, “Method for inducing osteoblast differentiation of human extramedullary adipose tissue cells” (Bio Holdings International Limited, priority 1997, dated 2002).

Tests used:
[1] = test system: human extramedullary adipose tissue cells; experiment: Alkaline phosphatase activity of treated cultures (para-nitrophenol phosphate substrate); format: cell-based; settings: dexamethasone 10^-7 M
Description: Adipose tissue biopsies were taken during plastic surgery of the abdomen on healthy patients, of ages of from 25 to 50.
The tissues taken were sliced thinly into small fragments and digested for 90 minutes with collagenase (2 mg/ml) in a Krebs Ringer buffer at 37° C. Filtering was performed on a screen having a pore size of 100 μm, the filtrate was recovered, and centrifuged at 1000 revolutions per minute (rpm) for 5 min. The supernatant was removed and the pellet was washed several times in Krebs Ringer buffer. The washing and centrifuging steps were repeated several times and on each occasion the supernatant containing mature adipocytes was removed. The resulting cells were suspended in DME/F12 (Sigma Chemical Co., St. Louis, Mo. USA; reference D-6905) culture medium containing 10% fetal calf serum, 100 μg/ml streptomycin, and 100 U/ml penicillin.
Polystyrene culture dishes (“tissue culture flasks” sold by Becton-Dickinson under the references 3013, 3028, and 3084) were inoculated with the resulting cell suspension and incubation was performed at 37° C. under an atmosphere of moist air with 5% additional CO2. […]
The quantity of para-nitrophenol formed upon hydrolysis of the substrate was determined by measuring the absorbance at 410 nm, which was converted into nanomoles of enzyme using a calibration curve established on the basis of known concentrations of para-nitrophenol.

[2] = target: placenta type alkaline phosphatase (Homo sapiens, UniProt P05187); settings: read-out: levamisole concentration for 50% inhibition of activity, placenta type alkaline phosphatase; cited from earlier work
Sequence of placenta type alkaline phosphatase (P05187 23-506 limits assumed): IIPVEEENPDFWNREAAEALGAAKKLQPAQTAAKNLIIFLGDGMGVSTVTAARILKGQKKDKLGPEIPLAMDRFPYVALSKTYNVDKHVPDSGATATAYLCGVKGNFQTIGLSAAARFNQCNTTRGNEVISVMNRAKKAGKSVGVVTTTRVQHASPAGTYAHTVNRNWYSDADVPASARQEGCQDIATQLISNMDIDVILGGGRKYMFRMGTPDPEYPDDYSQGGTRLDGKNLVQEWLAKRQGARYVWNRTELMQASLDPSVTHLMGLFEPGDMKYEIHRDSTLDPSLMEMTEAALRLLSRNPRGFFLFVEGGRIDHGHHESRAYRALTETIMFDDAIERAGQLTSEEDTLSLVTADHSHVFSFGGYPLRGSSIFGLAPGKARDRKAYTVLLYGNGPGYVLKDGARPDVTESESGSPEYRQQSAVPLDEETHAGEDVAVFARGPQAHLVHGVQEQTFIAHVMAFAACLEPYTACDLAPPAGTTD

[3] = target: intestine type alkaline phosphatase (Homo sapiens, UniProt P09923); settings: read-out: levamisole concentration for 50% inhibition of activity, intestine type alkaline phosphatase; cited from earlier work
Sequence of intestine type alkaline phosphatase (P09923 20-503 limits assumed): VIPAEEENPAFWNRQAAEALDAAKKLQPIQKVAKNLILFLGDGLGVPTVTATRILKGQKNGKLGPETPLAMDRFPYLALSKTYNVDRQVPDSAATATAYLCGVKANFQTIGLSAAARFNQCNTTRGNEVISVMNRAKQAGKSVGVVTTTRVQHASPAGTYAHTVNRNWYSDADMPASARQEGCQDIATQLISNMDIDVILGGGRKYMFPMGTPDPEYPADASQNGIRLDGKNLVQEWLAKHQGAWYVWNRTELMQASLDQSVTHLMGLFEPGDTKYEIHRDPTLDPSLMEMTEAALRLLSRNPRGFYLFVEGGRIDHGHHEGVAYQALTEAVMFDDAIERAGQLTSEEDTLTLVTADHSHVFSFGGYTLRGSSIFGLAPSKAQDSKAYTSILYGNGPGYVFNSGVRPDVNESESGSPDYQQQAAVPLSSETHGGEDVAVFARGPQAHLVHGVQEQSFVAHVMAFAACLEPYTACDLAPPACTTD

| Compound | alkaline phosphatase activity, observed in nearly all cases [1] | alkaline phosphatase activity, sometimes as high as [1] | IC50 [2] | IC50 [3] |
| --- | --- | --- | --- | --- |
| C[C@@H]1C[C@H]2[C@@H]3CCC4=CC(=O)C=C[C@]4(C)[C@@]3(F)[C@@H](O)C[C@]2(C)[C@@]1(O)C(=O)CO [dexamethasone] | not less than 200 nanomoles of para-nitrophenol/30 min/well | ≤ 700 nanomoles/30 min/well | – | – |
| c1ccc([C@H]2CN3CCSC3=N2)cc1 [levamisole] | – | – | ~1000 µM | ~3000 µM |
